# Data reported in patent US4067997A, “Synergistic microbecidal composition and method” (priority 1976, dated 1978).
# Tests used:
# Assay type in all cases: cell-based
# Staphylococcus aureus = test: MIC on mass basis (Example V procedure)
# Method: (§1) The essential procedure of Example I was followed with a series of phenolic compounds, with the exception that the test method was conducted on a mass (μg/ml) basis rather than a molecular (mol/ml) basis of the foregoing tests, since the long established phenol-coeffecient test is on a mass rather than molecular basis. Additionally, a different but closely related group of organisms were used in this test, in order to give a complete representative span on gram-negative, gram-positive and fungus organisms. Additionally, the phenolic derivatives chosen for test purposes include a number of derivatives which are presently accepted by the FDA as food-grade phenolic microbicides.
# (§2) The same procedure of Example V was repeated but with combinations of mono-laurin (GML).
# (§3) The procedure of Example V was repeated with combinations of glycerol mono-laurin (GML) and ethylenediamine tetraacetic acid (EDTA) as the calcium salt and in combination with BHA.
# Pseudomonas aeruginosa = test: MIC on mass basis (Example V procedure)
# Method: as §1, §2, §3
# Candida albicans = test: MIC on mass basis (Example V procedure)
# Method: as §1, §2, §3
# Saccharomyces cerevisiae = test: MIC on mass basis (Example V procedure)
# Method: as §1, §2, §3
# Escherichia coli = test: MIC on mass basis (Example V procedure)
# Method: as §1, §2, §3
# Streptococcus agalactiae = test: MIC on mass basis (Example V procedure)
# Method: as §1, §2, §3
# Nocardia asteroides = test: MIC on mass basis (Example V procedure)
# Method: as §1, §2, §3
# [1] = system: nine gram-positive organisms and the yeast/fungus Candida; test: MIC, broth dilution, over all organisms (Examples I/II); settings: all except streptococcus Group D; from essentially as active up to
# Method: In order to establish comparative bactericidal and fungicidal results with homologous fatty acids, a series of experiments was performed with thirty straight-chain fatty acids and derivatives thereof. Eight different gram-negative and twelve different gram-positive organisms, representing a very broad spectrum of organisms, were used in these experiments including the fungus Candida (a yeast). Additionally, fatty acids were chosen to show the effects of saturation versus unsaturation, in the fatty acid claim. Standard solutions of the fatty acids and their derivatives were prepared by first dissolving the weighed compounds in 1 to 2 ml of 95% ethanol and immediately pouring this solution into 200 ml of Tripticase Soy Broth. These lipid compounds which are insoluble in water and broth precipitated into very small crystals or droplets. The tubes containing the suspension were warmed to approximately 70° C and were then placed in an ultrasonic tank for further solubilization of the lipid derivatives.
# Standard solutions (or suspensions) at 1,000 μg/ml were twofold serially diluted with additional broth to a concentration of 125 μg/ml. A 4-ml amount of each dilution was then quickly, and with constant agitation, dispensed into appropriately labeled screw-capped glass tubes (16 by 125 mm). The tubes were sterilized with steam at 15 psi for 15 minutes. After sterilization, all tubes were cooled and incubated overnight at 35° C to insure sterility.
# All compounds were compared on a molar (micromoles/milliliter) rather than on a mass basis. In the following lists of organisms used, those followed by a parenthetical number are registered with the American Type Culture Collection (ATCC); the remainder were isolates from Providence Hospital or Northland Laboratory.
# Staphylococcus aureus, S. epidermidis, beta-hemolytic streptococci (Group A and non-group A), group D streptococcus, Bacillus subtilis (6051), Sarcina lutea (9431), Micrococcus sp., Candida albicans, Nocardia asteroids (3308), Corynebacterium sp. (10700), and pneumococcus (63001).
# One drop (0.04 ± 0.01 ml) of an 18-hr broth culture containing 10^7 and 10^9 organisms/ml was added to each dilution of the test compound, as well as to a tube of plain broth which served as the positive control. After inoculation, the contents of each tube were well mixed, and the tubes were incubated at 35° C in a 5% carbon dioxide + […] atmosphere.
# The MIC is defined as the lowest concentration of compound at which no […] evidence of growth was observed when turbidity of the inoculated broth dilutions was compared with control tubes. […] Only a one-tube difference between the bactericidal and bacteriostatic concentrations was normally observed.
# Table 5 presents a comparison of the C10 and C12 free acids and their glyceryl derivatives, and Table 6 gives the corresponding ranges of activity.
# Standard solutions (1000 μg/ml) of three fatty acids and polyglycerol esters thereof were prepared as described in Example I. Also sucrose esters were prepared by transferring the weighed compounds (0.2 gm. dissolved in 1 ml absolute methanol) into 200 ml of sterile Trypticase Soy Broth (TSB). These standard solutions (1000 μg/ml) were twofold serially diluted with additional sterile broth to a concentration of 125 μg/ml. A 3.8 aliquot of each dilution was asceptically delivered into sterile screw-capped culture tubes. All tubes were incubated overnight at 36° C to insure sterility. The microorganisms used in this example were the same as those used in Example I.
# The inoculum, 0.05 ml of an 13-24 hour TSB culture (approximately 10^9 organisms/ml) was asceptically delivered into all dilutions of the compounds, mixed well, and incubated at 36° C. […]
structure (smiles),measurement,setting,value
"CCCCCCCCCCCC(=O)OCC(O)CO (stereo not drawn) [GML, glycerol mono-laurin]",MIC,"Staphylococcus aureus; Table 13, Staphylococcus aureus",31.25 µg/mL
same,MIC,"Staphylococcus aureus; Table 14, Staphylococcus aureus",31.25 µg/mL
same,MIC,"Staphylococcus aureus; Table 16, Staphylococcus aureus, no unit in table","1,000"
same,MIC of GML,"Staphylococcus aureus; Table 17, EDTA 0","1,000 μg/ml"
same,MIC of GML,"Staphylococcus aureus; Table 17, EDTA 125","1,000 μg/ml"
same,MIC of GML,"Staphylococcus aureus; Table 17, EDTA 250","1,000 μg/ml"
same,MIC of GML,"Staphylococcus aureus; Table 17, EDTA 500",500 µg/mL
same,MIC of GML,"Staphylococcus aureus; Table 17, EDTA 1,000",100 µg/mL
same,MIC of GML,"Staphylococcus aureus; Table 17, EDTA 5,000",< 10 µg/mL
same,MIC of GML,"Staphylococcus aureus; Table 17, EDTA 10,000",< 10 µg/mL
same,MIC,"Pseudomonas aeruginosa; Table 13, Pseudomonas aeruginosa","> 1,000 μg/ml"
same,MIC,"Pseudomonas aeruginosa; Table 14, Pseudomonas aeruginosa","> 1,000 μg/ml"
same,MIC,"Pseudomonas aeruginosa; Table 16, Pseudomonas aeruginosa, no unit in table","> 1,000"
same,MIC of GML,"Pseudomonas aeruginosa; Table 17, EDTA 0","> 10,000 μg/ml"
same,MIC of GML,"Pseudomonas aeruginosa; Table 17, EDTA 125","> 10,000 μg/ml"
same,MIC of GML,"Pseudomonas aeruginosa; Table 17, EDTA 250","> 10,000 μg/ml"
same,MIC of GML,"Pseudomonas aeruginosa; Table 17, EDTA 500","> 10,000 μg/ml"
same,MIC of GML,"Pseudomonas aeruginosa; Table 17, EDTA 1,000","> 10,000 μg/ml"
same,MIC of GML,"Pseudomonas aeruginosa; Table 17, EDTA 5,000",100 µg/mL
same,MIC of GML,"Pseudomonas aeruginosa; Table 17, EDTA 10,000",< 10 µg/mL
same,MIC,"Candida albicans; Table 13, Candida albicans","> 1,000 μg/ml"
same,MIC,"Candida albicans; Table 14, Candida albicans","> 1,000 μg/ml"
same,MIC,"Candida albicans; Table 16, Candida albicans, no unit in table","> 1,000"
same,MIC of GML,"Candida albicans; Table 17, EDTA 0","> 10,000 μg/ml"
same,MIC of GML,"Candida albicans; Table 17, EDTA 125",500 µg/mL
same,MIC of GML,"Candida albicans; Table 17, EDTA 250",500 µg/mL
same,MIC of GML,"Candida albicans; Table 17, EDTA 500",100 µg/mL
same,MIC of GML,"Candida albicans; Table 17, EDTA 1,000",100 µg/mL
same,MIC of GML,"Candida albicans; Table 17, EDTA 5,000",100 µg/mL
same,MIC of GML,"Candida albicans; Table 17, EDTA 10,000",100 µg/mL
same,MIC,"Saccharomyces cerevisiae; Table 13, Saccharomyces cerevisiae","< 1,000 μg/ml"
same,MIC,"Saccharomyces cerevisiae; Table 14, Saccharomyces cerevisiae","1,000 μg/ml"
same,MIC,"Saccharomyces cerevisiae; Table 16, Saccharomyces cerevisiae, no unit in table","1,000"
same,MIC of GML,"Saccharomyces cerevisiae; Table 17, EDTA 0","1,000 μg/ml"
same,MIC of GML,"Saccharomyces cerevisiae; Table 17, EDTA 125",500 µg/mL
same,MIC of GML,"Saccharomyces cerevisiae; Table 17, EDTA 250",100 µg/mL
same,MIC of GML,"Saccharomyces cerevisiae; Table 17, EDTA 500",100 µg/mL
same,MIC of GML,"Saccharomyces cerevisiae; Table 17, EDTA 1,000",< 10 µg/mL
same,MIC of GML,"Saccharomyces cerevisiae; Table 17, EDTA 5,000",< 10 µg/mL
same,MIC of GML,"Saccharomyces cerevisiae; Table 17, EDTA 10,000",< 10 µg/mL
same,MIC,"Escherichia coli; Table 13, Escherichia coli","> 1,000 μg/ml"
same,MIC,"Escherichia coli; Table 14, Escherichia coli","> 1,000 μg/ml"
same,MIC,"Escherichia coli; Table 16, Escherichia coli, no unit in table (Example 5 procedure, mass basis)","> 1,000"
same,MIC of GML,"Escherichia coli; Table 17, EDTA 0","> 10,000 μg/ml"
same,MIC of GML,"Escherichia coli; Table 17, EDTA 125","> 10,000 μg/ml"
same,MIC of GML,"Escherichia coli; Table 17, EDTA 250","> 10,000 μg/ml"
same,MIC of GML,"Escherichia coli; Table 17, EDTA 500","> 10,000 μg/ml"
same,MIC of GML,"Escherichia coli; Table 17, EDTA 1,000","> 10,000 μg/ml"
same,MIC of GML,"Escherichia coli; Table 17, EDTA 5,000","> 10,000 μg/ml"
same,MIC of GML,"Escherichia coli; Table 17, EDTA 10,000","> 10,000 μg/ml"
same,MIC,"Streptococcus agalactiae; Table 13, Streptococcus agalactiae",15.60 µg/mL
same,MIC,"Streptococcus agalactiae; Table 14, Streptococcus agalactiae",31.25 µg/mL
same,MIC,"Nocardia asteroides; Table 13, Nocardia asteroides",15.60 µg/mL
same,MIC,"Nocardia asteroides; Table 14, Nocardia asteroides",7.80 µg/mL
same,MIC,"Nocardia asteroides; Table 16, Nocardia asteroides, no unit in table",10
same,MIC of GML,"Nocardia asteroides; Table 17, EDTA 0",< 10 µg/mL
same,MIC of GML,"Nocardia asteroides; Table 17, EDTA 125",100 µg/mL
same,MIC of GML,"Nocardia asteroides; Table 17, EDTA 250",< 10 µg/mL
same,MIC of GML,"Nocardia asteroides; Table 17, EDTA 500",< 10 µg/mL
same,MIC of GML,"Nocardia asteroides; Table 17, EDTA 1,000",< 10 µg/mL
same,MIC of GML,"Nocardia asteroides; Table 17, EDTA 5,000",< 10 µg/mL
same,MIC of GML,"Nocardia asteroides; Table 17, EDTA 10,000",< 10 µg/mL
same,Activity of mono-laurin relative to mono-capric,[1],≤ 5.5 times
